Numbers after ± are expanded uncertainties.
Details: 303.15 K; 101.33 kPa; Liquid

Row | Structure (SMILES) | mass density [kg/m3] | speed of sound [m/s] | viscosity [mPa·s]
1 | CC(C)O [propan-2-ol] | 777.3 ± 0.9 | 1126.6 ± 2.4 | 1.614 ± 0.076
2 | CC(C)(C)O [2-methylpropan-2-ol] | 775.1 ± 0.9 | 1078.8 ± 2.3 | 3.099 ± 0.14
3 | CCCCO [butan-1-ol] | 802.1 ± 0.9 | 1196.6 ± 2.5 | 2.54 ± 0.11
4 | C1COCO1 [1,3-dioxolane] | 1051.8 ± 1.2 | 1288.5 ± 2.6 | 0.5487 ± 0.03
5 | CC(C)CCO [3-methylbutan-1-ol] | 803.2 ± 0.9 | 1197 ± 2.5 | 3.111 ± 0.14
6 | CCO [ethanol] | 784.4 ± 0.9 | 1144.3 ± 2.4 | 0.9675 ± 0.048
7 | CO [methanol] | 782.4 ± 0.9 | 1088.5 ± 2.3 | 0.5041 ± 0.028
8 | CCCO [propan-1-ol] | 795.8 ± 0.9 | 1182.6 ± 2.5 | 1.663 ± 0.078
9 | CCC(C)O (centres undefined) [butan-2-ol] | 799.2 ± 0.9 | 1168.9 ± 2.4 | 2.339 ± 0.11
10 | O [water] |  | 1505.2 ± 3 | 0.7975 ± 0.041
